≈ marks a conversion by molar mass, not a printed value. Read-outs that look alike come from different tables or passages of the source.

The test system of test [1] is 30 clinically isolated strains of S. aureus and S. epidermidis. Set-up: method as in PMID 28822236, PMID 29499458. The following applies: cited from earlier work.
Test [2] concerns M. tuberculosis Spec. 192. Description: Tuberculostatic activity, Microplate Alamar Blue Assay (MABA). As to conditions: Mycobacterium tuberculosis. Type of test: cell-based, Mycobacterium tuberculosis.
In another test the test system is M. tuberculosis H37Rv. The test is described as above. In kind it is cell-based, Mycobacterium tuberculosis. As to conditions: Mycobacterium tuberculosis.
The subject of test [3] is HaCaT (immortalized human keratinocytes). The test can be described thus: Cytotoxicity, MTT assay. Type of test: cell-based. As to conditions: 72 h, normal cells, mean SD. The method, then:
(§1) MTT assay was performed as previously described. Experiments were repeated three times. […] Decreased relative MTT level means decreased cell viability.
(In general: Tetrazolium assays rely on reduction of a dye to a coloured formazan, in cell work by metabolically active cells.)

For test [4], the system named is SW480 (primary colon cancer). The test can be described thus: Cytotoxicity, MTT assay. In kind it is cell-based, human. The following applies: mean SD. The protocol: as §1
Test [5] has as its system SW620 (metastatic colon cancer). Description: Cytotoxicity, MTT assay. Type of test: cell-based, human. As to conditions: 72 h, mean SD. The method, then: as §1
The mark [6] stands for this setting: M. tuberculosis Spec. 192, patient isolate fully sensitive to tuberculostatics, MABA, read-out: MIC.
The mark [7] stands for this setting: M. tuberculosis H37Rv, standard strain, MABA, read-out: MIC.

As usually defined, the MIC is the smallest concentration in the dilution series that meets the test's criterion for growth inhibition. Take “complex with 1-1-(3,4-dichlorophenyl)-3-[3-(trifluoromethyl) phenyl]thiourea”: the MIC in test [1] was 0.5 to 2 µg/mL.
Take `NNC(=O)c1ccncc1` [Isoniazid (INH), Isoniazid, reference compound]: the MIC (in test [2] (SPEC.192); in the test on M. tuberculosis H37Rv (H37RV)) was 0.125 µg/mL (≈ 0.911 µM) each time.
For orientation: IC50 means the concentration that inhibits the measured activity by half. Read a high IC50 as weaker potency. For the compound `COc1cccc2c1C(=O)c1c(O)c3c(c(O)c1C2=O)C[C@@](O)(C(=O)CO)C[C@@H]3O[C@H]1C[C@H](N)[C@H](O)[C@H](C)O1` [Doxorubicin, doxorubicin, reference compound], the IC50 in test [3] (Homo sapiens, HaCaT) was 0.29 ± 0.11 µM; in test [4] (Homo sapiens, SW480, 72 h), 0.75 ± 0.1 µM.
Consider `CC[C@@H](CO)NCCN[C@@H](CC)CO` [Ethambutol (EMB), Ethambutol, reference compound], for which the MIC (in test [2] (setting [6]); in the test on M. tuberculosis H37Rv (setting [7])) was 2 µg/mL (≈ 9.79 µM) each time.
For the compound `N.N.[Cl][Pt][Cl]` [Cisplatin, cisplatin, reference compound], the IC50 is 6.3 ± 0.7 µM in test [3], 10.4 µM in test [4] (72 h) and 6.7 ± 1.1 µM in test [5].
As to `CO[C@H]1/C=C/O[C@@]2(C)Oc3c(C)c(O)c4c(O)c(c(/C=N/N5CCN(C)CC5)c(O)c4c3C2=O)NC(=O)/C(C)=C\C=C\[C@H](C)[C@H](O)[C@@H](C)[C@@H](O)[C@@H](C)[C@H](OC(C)=O)[C@@H]1C` [Rifampicin (RMP), Rifampicin, reference compound], the MIC (in test [2] (setting [6]); in the test with M. tuberculosis H37Rv (setting [7])) was 1 µg/mL (≈ 1.22 µM) in each case.
With `[H]/N=C(/N)N[C@H]1[C@H](O)[C@@H](O)[C@H](O[C@@H]2O[C@@H](C)[C@](O)(C=O)[C@H]2O[C@@H]2O[C@@H](CO)[C@H](O)[C@@H](O)[C@@H]2NC)[C@@H](N/C(N)=N\[H])[C@@H]1O` [Streptomycin (SM), Streptomycin, reference compound], the MIC (in test [2] (setting [6]); in the test on M. tuberculosis H37Rv (setting [7])) was 1 µg/mL (≈ 1.72 µM) each time.

These data come from paper PMC9779606, “Synthesis, Structural Characterization and Biological Activity Evaluation of Novel Cu(II) Complexes with 3-(trifluoromethyl)phenylthiourea Derivatives” (International Journal of Molecular Sciences, 2022).
